Here are results for 21 molecules from US12516056B2, “Compounds for inhibition of janus kinase 1” (MANKIND PHARMA LTD., priority 2019, dated 2026).

The target of one assay is T1, Recombinant JAK3 (Homo sapiens, UniProt P52333).
T1 construct: purchased Carna Biosciences
T1 sequence (P52333 1-1124): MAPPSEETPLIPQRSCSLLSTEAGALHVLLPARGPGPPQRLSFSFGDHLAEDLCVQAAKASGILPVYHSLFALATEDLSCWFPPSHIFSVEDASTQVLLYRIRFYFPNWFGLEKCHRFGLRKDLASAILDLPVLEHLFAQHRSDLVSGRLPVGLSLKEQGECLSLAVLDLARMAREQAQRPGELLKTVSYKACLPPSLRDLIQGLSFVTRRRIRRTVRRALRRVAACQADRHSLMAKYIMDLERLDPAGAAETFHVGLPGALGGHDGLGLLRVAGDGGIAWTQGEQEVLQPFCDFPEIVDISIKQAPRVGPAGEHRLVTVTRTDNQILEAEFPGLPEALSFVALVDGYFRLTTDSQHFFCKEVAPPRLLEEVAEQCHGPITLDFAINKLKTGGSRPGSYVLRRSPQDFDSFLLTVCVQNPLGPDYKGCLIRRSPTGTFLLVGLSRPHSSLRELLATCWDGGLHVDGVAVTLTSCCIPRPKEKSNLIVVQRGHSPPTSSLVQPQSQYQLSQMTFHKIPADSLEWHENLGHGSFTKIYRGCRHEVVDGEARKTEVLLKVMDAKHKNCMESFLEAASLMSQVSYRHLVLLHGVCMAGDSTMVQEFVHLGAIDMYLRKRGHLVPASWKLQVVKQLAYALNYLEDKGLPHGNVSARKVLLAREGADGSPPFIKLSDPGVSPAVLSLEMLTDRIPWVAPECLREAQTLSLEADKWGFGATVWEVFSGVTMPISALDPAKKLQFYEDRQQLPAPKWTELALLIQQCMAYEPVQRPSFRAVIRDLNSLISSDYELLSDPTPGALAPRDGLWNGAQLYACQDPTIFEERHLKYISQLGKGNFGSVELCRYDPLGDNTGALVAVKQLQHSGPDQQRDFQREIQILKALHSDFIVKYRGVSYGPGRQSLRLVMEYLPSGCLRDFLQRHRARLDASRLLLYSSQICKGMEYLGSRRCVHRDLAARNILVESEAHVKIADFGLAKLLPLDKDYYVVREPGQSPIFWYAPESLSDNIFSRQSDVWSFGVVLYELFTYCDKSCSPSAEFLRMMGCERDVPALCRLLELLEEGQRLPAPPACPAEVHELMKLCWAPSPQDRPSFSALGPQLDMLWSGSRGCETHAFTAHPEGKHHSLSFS
The experiment in a line: JAK biochemical assay (LANCE Ultra TR-FRET), JAK3. Particulars: recombinant JAK3, TR-FRET; read-out: Biochemical Assay (μM) JAK3. Here is the method:
(§1) Recombinant JAK1, JAK2, JAK3 and TYK2 (Carna Biosciences) were used to develop biochemical assays in 50 mM HEPES pH 7.5, 1 mM EGTA, 10 mM MgCl2, 2 mM DTT and 0.01% Tween-20. […] The intensity of the light emission is proportional to the level of ULight substrate phosphorylation. Compounds which interfere with JAK enzyme activity show a lesser substrate phosphorylation and values are projected in terms of % inhibition in comparison to vehicle control.
Background: TR-FRET usually uses a lanthanide donor and a delayed reading to cut background.

A further assay addresses T2, Recombinant JAK1 (Homo sapiens, UniProt P23458).
T2 construct: purchased Carna Biosciences
The experiment in a line: JAK biochemical assay (LANCE Ultra TR-FRET), JAK1. Particulars: recombinant JAK1, TR-FRET; read-out: Biochemical Assay (μM) JAK1. The protocol: as §1

The next assay addresses T3, Recombinant JAK2 (Homo sapiens, UniProt O60674).
T3 construct: purchased Carna Biosciences
The experiment in a line: JAK biochemical assay (LANCE Ultra TR-FRET), JAK2. Particulars: recombinant JAK2, TR-FRET; read-out: Biochemical Assay (μM) JAK2. Here is the method: as §1

A further assay deals with T4, Recombinant TYK2 (Homo sapiens, UniProt P29597).
T4 construct: purchased Carna Biosciences
The experiment in a line: JAK biochemical assay (LANCE Ultra TR-FRET), TYK2. Particulars: recombinant TYK2, TR-FRET; read-out: Biochemical Assay (μM) TYK2. The protocol:
as §1

T4 sequence (P29597 whole entry): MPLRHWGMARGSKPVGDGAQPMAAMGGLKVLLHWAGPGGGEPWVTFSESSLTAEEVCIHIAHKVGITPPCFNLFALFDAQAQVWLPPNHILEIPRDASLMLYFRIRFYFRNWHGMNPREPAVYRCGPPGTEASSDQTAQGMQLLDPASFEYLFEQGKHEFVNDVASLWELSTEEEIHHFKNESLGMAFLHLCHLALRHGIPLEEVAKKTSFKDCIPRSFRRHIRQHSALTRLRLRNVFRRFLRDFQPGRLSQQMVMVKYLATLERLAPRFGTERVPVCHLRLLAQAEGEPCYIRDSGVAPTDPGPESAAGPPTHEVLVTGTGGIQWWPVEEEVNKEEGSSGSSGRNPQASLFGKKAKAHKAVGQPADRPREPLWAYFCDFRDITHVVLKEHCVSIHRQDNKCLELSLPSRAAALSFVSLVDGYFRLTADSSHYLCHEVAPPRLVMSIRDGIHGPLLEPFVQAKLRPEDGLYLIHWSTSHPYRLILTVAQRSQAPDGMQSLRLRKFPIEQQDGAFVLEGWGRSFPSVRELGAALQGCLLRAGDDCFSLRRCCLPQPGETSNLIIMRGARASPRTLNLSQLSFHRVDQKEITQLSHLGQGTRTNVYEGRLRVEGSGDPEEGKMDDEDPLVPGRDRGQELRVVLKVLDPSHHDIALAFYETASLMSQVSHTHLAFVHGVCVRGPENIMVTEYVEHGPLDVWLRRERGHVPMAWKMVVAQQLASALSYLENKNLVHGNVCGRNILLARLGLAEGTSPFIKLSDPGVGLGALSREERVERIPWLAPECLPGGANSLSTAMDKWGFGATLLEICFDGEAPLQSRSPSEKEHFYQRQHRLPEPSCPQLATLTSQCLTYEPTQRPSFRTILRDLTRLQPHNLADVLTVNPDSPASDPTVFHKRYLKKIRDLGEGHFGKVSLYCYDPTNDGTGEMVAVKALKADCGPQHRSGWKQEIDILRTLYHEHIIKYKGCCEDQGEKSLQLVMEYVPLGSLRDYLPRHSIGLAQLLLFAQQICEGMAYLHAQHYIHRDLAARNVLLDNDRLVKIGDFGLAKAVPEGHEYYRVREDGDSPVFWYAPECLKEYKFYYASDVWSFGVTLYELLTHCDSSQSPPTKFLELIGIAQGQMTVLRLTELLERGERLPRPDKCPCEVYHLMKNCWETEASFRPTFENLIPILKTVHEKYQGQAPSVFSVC
T3 sequence (O60674 whole entry): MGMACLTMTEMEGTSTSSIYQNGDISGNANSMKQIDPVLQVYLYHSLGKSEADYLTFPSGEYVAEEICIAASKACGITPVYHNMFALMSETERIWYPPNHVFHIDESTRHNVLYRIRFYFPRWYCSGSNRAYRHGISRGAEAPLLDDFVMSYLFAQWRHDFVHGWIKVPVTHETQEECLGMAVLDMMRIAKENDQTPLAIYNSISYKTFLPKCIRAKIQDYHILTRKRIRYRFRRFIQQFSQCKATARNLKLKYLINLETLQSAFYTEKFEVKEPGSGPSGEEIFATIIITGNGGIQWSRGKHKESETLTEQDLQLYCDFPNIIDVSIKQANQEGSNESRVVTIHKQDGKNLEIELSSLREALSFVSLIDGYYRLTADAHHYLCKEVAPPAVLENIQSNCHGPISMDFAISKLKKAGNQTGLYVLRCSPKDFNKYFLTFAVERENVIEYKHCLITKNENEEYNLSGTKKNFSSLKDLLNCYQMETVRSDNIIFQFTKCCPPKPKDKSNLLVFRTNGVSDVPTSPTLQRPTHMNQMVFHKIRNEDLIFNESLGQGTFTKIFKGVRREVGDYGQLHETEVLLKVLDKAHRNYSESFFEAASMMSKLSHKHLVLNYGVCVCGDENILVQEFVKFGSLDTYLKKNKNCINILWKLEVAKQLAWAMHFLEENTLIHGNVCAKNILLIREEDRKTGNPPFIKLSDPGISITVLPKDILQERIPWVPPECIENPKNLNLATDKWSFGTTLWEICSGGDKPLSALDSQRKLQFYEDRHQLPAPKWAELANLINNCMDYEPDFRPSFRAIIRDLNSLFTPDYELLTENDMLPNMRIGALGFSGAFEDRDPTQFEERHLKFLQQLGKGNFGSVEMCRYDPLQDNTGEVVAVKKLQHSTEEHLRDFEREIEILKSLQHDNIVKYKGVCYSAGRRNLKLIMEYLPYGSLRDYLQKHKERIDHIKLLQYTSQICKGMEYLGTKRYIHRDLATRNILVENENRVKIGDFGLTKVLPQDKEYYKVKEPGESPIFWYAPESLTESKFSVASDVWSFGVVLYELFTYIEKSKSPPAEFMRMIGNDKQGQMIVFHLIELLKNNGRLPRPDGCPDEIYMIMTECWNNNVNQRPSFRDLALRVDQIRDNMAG
T2 sequence (P23458 whole entry): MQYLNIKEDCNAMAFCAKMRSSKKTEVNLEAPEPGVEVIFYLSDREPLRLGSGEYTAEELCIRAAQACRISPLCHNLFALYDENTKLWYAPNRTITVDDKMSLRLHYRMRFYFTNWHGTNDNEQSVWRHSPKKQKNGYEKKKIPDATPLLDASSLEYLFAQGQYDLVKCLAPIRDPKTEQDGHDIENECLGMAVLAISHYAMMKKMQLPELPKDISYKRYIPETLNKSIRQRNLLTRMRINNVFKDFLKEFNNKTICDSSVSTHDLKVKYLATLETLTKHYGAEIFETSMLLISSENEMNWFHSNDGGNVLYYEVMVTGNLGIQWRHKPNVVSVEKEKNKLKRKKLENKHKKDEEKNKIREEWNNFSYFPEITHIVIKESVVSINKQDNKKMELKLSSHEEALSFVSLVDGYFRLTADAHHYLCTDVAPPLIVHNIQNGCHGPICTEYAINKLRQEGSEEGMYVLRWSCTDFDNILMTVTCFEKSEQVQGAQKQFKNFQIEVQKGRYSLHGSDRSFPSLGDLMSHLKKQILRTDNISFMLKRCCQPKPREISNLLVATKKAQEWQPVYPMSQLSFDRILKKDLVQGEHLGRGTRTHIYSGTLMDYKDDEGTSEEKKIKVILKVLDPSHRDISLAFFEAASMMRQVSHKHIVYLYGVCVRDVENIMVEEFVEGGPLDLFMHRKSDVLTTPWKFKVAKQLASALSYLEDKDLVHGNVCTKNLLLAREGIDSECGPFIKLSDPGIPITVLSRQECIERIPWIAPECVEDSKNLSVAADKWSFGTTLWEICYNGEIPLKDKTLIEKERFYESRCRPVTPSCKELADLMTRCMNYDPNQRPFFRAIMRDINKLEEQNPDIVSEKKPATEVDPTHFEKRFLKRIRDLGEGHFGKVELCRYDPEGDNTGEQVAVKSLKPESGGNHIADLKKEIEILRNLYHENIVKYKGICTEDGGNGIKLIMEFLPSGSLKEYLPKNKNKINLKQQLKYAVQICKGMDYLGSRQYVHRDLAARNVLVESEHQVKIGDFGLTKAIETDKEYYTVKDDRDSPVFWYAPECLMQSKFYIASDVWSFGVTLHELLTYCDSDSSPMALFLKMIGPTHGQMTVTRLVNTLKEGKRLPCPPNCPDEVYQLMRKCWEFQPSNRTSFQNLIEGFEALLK

Consider `Cc1cc(S(C)(=O)=O)ccc1NC(=O)N1CCN(c2ccnc3[nH]c(=O)[nH]c23)CC1` [Example 1024, 4-(2,3-dihydro-2-oxo-1H-imidazo[4,5-b]pyridin-7-yl)-N-(2-methyl-4-(methylsulfonyl)phenyl)piperazine-1-carboxamide], for which the IC50 at Recombinant JAK3, at Recombinant JAK1, at Recombinant JAK2 and at Recombinant TYK2 was more than 1 µM each time.
As for `O=C(NCC(F)(F)F)Nc1ccc(-c2ccnc3[nH]cnc23)cc1` [Example 1010, 1-(4-(3H-imidazo[4,5-b]pyridin-7-yl)phenyl)-3-(2,2,2-trifluoroethyl)urea], the IC50 was more than 0.5 µM at Recombinant JAK3, less than 0.5 µM at Recombinant JAK1, less than 0.5 µM at Recombinant JAK2 and more than 1 µM on Recombinant TYK2.
For `O=C(Nc1ccnc(F)c1)N1CCN(c2ccnc3[nH]c(=O)[nH]c23)CC1` [Example 1015, N-(2-fluoropyridin-4-yl)-4-(2,3-dihydro-2-oxo-1H-imidazo[4,5-b]pyridin-7-yl)piperazine-1-carboxamide], the IC50 on Recombinant JAK3, at Recombinant JAK2 and at Recombinant TYK2 was more than 1 µM in each case.
`COc1cc(-c2nc3c(-c4cnn(C5COCCC5C#N)c4)ccnc3[nH]2)ccc1Cl` (centres unmarked) [Example 1097, 3-(4-(2-(4-chloro-3-methoxyphenyl)-3H-imidazo[4,5-b]pyridin-7-yl)-1H-pyrazol-1-yl)-tetrahydro-2H-pyran-4-carbonitrile]: the IC50 on Recombinant JAK3 was more than 10 µM; at Recombinant JAK1, more than 10 µM; on Recombinant JAK2 it was more than 0.5 µM; at Recombinant TYK2, more than 1 µM.
For `O=C(NCC(F)(F)F)n1ccc(-c2ccnc3[nH]c(=O)[nH]c23)c1` [Example 1028, N-(2,2,2-trifluoroethyl)-3-(2,3-dihydro-2-oxo-1H-imidazo[4,5-b]pyridin-7-yl)-1H-pyrrole-1-carboxamide], the IC50 on Recombinant JAK3, on Recombinant JAK1, at Recombinant JAK2 and at Recombinant TYK2 was more than 1 µM in each case.
Consider `CS(=O)(=O)CCC(F)c1ccc(-n2cc(-c3ccnc4[nH]cnc34)cn2)nc1` (centres unmarked) [Example 1162, 7-(1-(5-(1-fluoro-3-(methylsulfonyl)propyl)pyridin-2-yl)-1H-pyrazol-4-yl)-3H-imidazo[4,5-b]pyridine], for which the IC50 on Recombinant JAK3 is more than 0.5 µM; on Recombinant JAK1, more than 0.5 µM; on Recombinant JAK2, more than 0.5 µM; on Recombinant TYK2, more than 1 µM.
For `COc1cc(-n2cc(-c3ccnc4[nH]cnc34)cn2)ccc1CC#N` [Example 1105, 2-(4-(4-(3H-imidazo[4,5-b]pyridin-7-yl)-1H-pyrazol-1-yl)-2-methoxyphenyl)acetonitrile], the IC50 is more than 0.5 µM at Recombinant JAK3, more than 1 µM at Recombinant JAK1, more than 0.5 µM on Recombinant JAK2 and more than 10 µM at Recombinant TYK2.
As to `CS(=O)(=O)N1CCC(NC(=O)N2CCN(c3ccnc4[nH]c(=O)[nH]c34)CC2)CC1` [Example 1016, N-(1-(methylsulfonyl)piperidin-4-yl)-4-(2-oxo-2,3-dihydro-1H-imidazo[4,5-b]pyridin-7-yl)piperazine-1-carboxamide], the IC50 on Recombinant JAK3, at Recombinant JAK1, on Recombinant JAK2 and on Recombinant TYK2 was more than 10 µM each time.
Consider `O=C(Nc1ccncc1)Nc1ccc(-c2ccnc3[nH]c(=O)[nH]c23)cc1` [Example 1009, 1-(4-(2,3-dihydro-2-oxo-1H-imidazo[4,5-b]pyridin-7-yl)phenyl)-3-(pyridin-4-yl)urea], for which the IC50 on Recombinant JAK3 was more than 1 µM; on Recombinant JAK1, more than 10 µM; on Recombinant JAK2, more than 0.5 µM; on Recombinant TYK2, more than 10 µM.
`Cn1c(=O)[nH]c2nccc(-c3cnn(C(=O)NCC(F)(F)F)c3)c21` [Example 1029, N-(2,2,2-trifluoroethyl)-4-(2,3-dihydro-1-methyl-2-oxo-1H-imidazo[4,5-b]pyridin-7-yl)-1H-pyrazole-1-carboxamide]: the IC50 at Recombinant JAK3, on Recombinant JAK1, at Recombinant JAK2 and on Recombinant TYK2 was more than 10 µM throughout.
Turning to `CC(=O)N1CCC(c2nc3c(-c4cnn(C(=O)NCC(F)(F)F)c4)ccnc3[nH]2)CC1` [Example 1098, 4-(2-(1-acetylpiperidin-4-yl)-3H-imidazo[4,5-b]pyridin-7-yl)-N-(2,2,2-trifluoroethyl)-1H-pyrazole-1-carboxamide], the IC50 at Recombinant JAK3 is more than 1 µM; at Recombinant JAK1 it was more than 1 µM; at Recombinant JAK2 it was more than 1 µM; on Recombinant TYK2 it was more than 10 µM.
On to `CC(NC(=O)N1CCN(c2ccnc3[nH]c(=O)[nH]c23)CC1)C(F)(F)F` (centres unmarked) [Example 1021, N-(1,1,1-trifluoropropan-2-yl)-4-(2,3-dihydro-2-oxo-1H-imidazo[4,5-b]pyridin-7-yl)piperazine-1-carboxamide], for which the IC50 on Recombinant JAK3, at Recombinant JAK2 and at Recombinant TYK2 was more than 1 µM each time.
Consider `COc1cc(NC(=O)N2CCN(c3ccnc4[nH]c(=O)[nH]c34)CC2)ccn1` [Example 1019, 4-(2,3-dihydro-2-oxo-1H-imidazo[4,5-b]pyridin-7-yl)-N-(2-methoxypyridin-4-yl)piperazine-1-carboxamide], for which the IC50 at Recombinant JAK3, on Recombinant JAK2 and at Recombinant TYK2 was more than 1 µM throughout.
In the case of `CCC(C)(C#N)NC(=O)n1cc(-c2ccnc3[nH]c(=O)[nH]c23)cn1` (centres unmarked) [Example 1040, N-(2-cyanobutan-2-yl)-4-(2,3-dihydro-2-oxo-1H-imidazo[4,5-b]pyridin-7-yl)-1H-pyrazole-1-carboxamide], on Recombinant TYK2, the IC50 is more than 1 µM.
In the case of `OC(c1ccnc(-n2cc(-c3ccnc4[nH]cnc34)cn2)c1)C(F)(F)F` (centres unmarked) [Example 1172, 1-(2-(4-(3H-imidazo[4,5-b]pyridin-7-yl)-1H-pyrazol-1-yl)pyridin-4-yl)-2,2,2-trifluoroethanol], the IC50 is less than 0.1 µM at Recombinant JAK3 and more than 1 µM at Recombinant TYK2.
Consider `CN(C)C(c1ccc(-n2cc(-c3ccnc4[nH]cnc34)cn2)nc1)C(F)(F)F` (centres unmarked) [Example 1121, 1-(6-(4-(3H-imidazo[4,5-b]pyridin-7-yl)-1H-pyrazol-1-yl)pyridin-3-yl)-2,2,2-trifluoro-N,N-dimethylethanamine], for which the IC50 was more than 0.1 µM at Recombinant JAK3, more than 0.1 µM at Recombinant JAK2 and more than 1 µM on Recombinant TYK2.
Regarding `OC(c1ccc(-n2cc(-c3ccnc4[nH]cnc34)cn2)nc1)(C1CCCC1)C(F)(F)F` (centres unmarked) [Example 1132, 1-(6-(4-(3H-imidazo[4,5-b]pyridin-7-yl)-1H-pyrazol-1-yl)pyridin-3-yl)-1-cyclopentyl-2,2,2-trifluoroethanol], the IC50 at Recombinant JAK3 was more than 0.1 µM; on Recombinant JAK2 it was more than 0.5 µM; on Recombinant TYK2, more than 1 µM.
On to `N#CCNC(=O)N1CCN(c2ccnc3[nH]c(=O)[nH]c23)CC1` [Example 1012, N-(cyanomethyl)-4-(2,3-dihydro-2-oxo-1H-imidazo[4,5-b]pyridin-7-yl)piperazine-1-carboxamide], for which the IC50 at Recombinant JAK3 was more than 1 µM.
As for `FC(F)(F)C(c1ccc(-n2cc(-c3ccnc4[nH]cnc34)cn2)nc1)N1CCOCC1` (centres unmarked) [Example 1137, 7-(1-(5-(2,2,2-trifluoro-1-morpholinoethyl)pyridin-2-yl)-1H-pyrazol-4-yl)-3H-imidazo[4,5-b]pyridine], the IC50 at Recombinant JAK3 is more than 0.5 µM; on Recombinant JAK2, more than 0.5 µM; on Recombinant TYK2, more than 1 µM.
On to `O=C(NCC(F)(F)F)Nc1cnc(-c2ccnc3[nH]c(=O)[nH]c23)cn1` [Example 1006, 1-(5-(2-oxo-2,3-dihydro-1H-imidazo[4,5-b]pyridin-7-yl)pyrazin-2-yl)-3-(2,2,2-trifluoroethyl)urea], for which, at Recombinant TYK2, the IC50 was more than 1 µM.
As for `CC(C)(C#N)NC(=O)n1cc(-c2ccnc3[nH]c(=O)[nH]c23)cn1` [Example 1033, N-(2-cyanopropan-2-yl)-4-(2,3-dihydro-2-oxo-1H-imidazo[4,5-b]pyridin-7-yl)-1H-pyrazole-1-carboxamide], the IC50 at Recombinant JAK3 and at Recombinant TYK2 was more than 1 µM each time.
